Experimental data reported in ChEMBL document CHEMBL5729069, “4,6 dihydropyrrolo [3,4-C] pyrazole-5 (1H)-carbonitrile derivates for treating cancer” (2022).

Biological target: Ubiquitin carboxyl-terminal hydrolase 7 (Homo sapiens, UniProt Q93009)
Experiment: Biochemical Assay: Dilution plates were prepared at 21 times the final concentration (2100 μM for a final concentration of 100 μM) in 50% DMSO in a 96-well polypropylene V-bottom plate (Greiner #651201). A typical 8-point dilution series would be 100, 30, 10, 3, 1, 0.3, 0.1, 0.03 μM final. Reactions were performed in duplicate in black 384 well plates (small volume, Greiner 784076) in a final reaction volume of 21 μl. Either 1 μl of 50% DMSO or diluted compound was added to the plate. USP7 was diluted in reaction buffer (20 mM Tris, pH 7.5, 100 mM NaCl, 0.05% Tween 20, 0.5 mg/ml BSA, 5 mM—beta mercaptoethanol) to the equivalent of 0.0025 μl/well and 10 μl of diluted USP7 was added to the compound. Enzyme and compound were incubated for 30 min at room temp. Reactions were initiated by the addition of 50 nM of TAMRA labelled peptide linked to ubiquitin via an iso-peptide bond as fluorescence polarisation substrate. Reactions were read immediately after addition of substrate and following a 2 hr incubation at room temperature. Readings were performed on a Pherastar Plus (BMG Labtech). λ Excitation 540 nm; λ Emission 590 nm.

Sequence of Ubiquitin carboxyl-terminal hydrolase 7 (Q93009 whole entry): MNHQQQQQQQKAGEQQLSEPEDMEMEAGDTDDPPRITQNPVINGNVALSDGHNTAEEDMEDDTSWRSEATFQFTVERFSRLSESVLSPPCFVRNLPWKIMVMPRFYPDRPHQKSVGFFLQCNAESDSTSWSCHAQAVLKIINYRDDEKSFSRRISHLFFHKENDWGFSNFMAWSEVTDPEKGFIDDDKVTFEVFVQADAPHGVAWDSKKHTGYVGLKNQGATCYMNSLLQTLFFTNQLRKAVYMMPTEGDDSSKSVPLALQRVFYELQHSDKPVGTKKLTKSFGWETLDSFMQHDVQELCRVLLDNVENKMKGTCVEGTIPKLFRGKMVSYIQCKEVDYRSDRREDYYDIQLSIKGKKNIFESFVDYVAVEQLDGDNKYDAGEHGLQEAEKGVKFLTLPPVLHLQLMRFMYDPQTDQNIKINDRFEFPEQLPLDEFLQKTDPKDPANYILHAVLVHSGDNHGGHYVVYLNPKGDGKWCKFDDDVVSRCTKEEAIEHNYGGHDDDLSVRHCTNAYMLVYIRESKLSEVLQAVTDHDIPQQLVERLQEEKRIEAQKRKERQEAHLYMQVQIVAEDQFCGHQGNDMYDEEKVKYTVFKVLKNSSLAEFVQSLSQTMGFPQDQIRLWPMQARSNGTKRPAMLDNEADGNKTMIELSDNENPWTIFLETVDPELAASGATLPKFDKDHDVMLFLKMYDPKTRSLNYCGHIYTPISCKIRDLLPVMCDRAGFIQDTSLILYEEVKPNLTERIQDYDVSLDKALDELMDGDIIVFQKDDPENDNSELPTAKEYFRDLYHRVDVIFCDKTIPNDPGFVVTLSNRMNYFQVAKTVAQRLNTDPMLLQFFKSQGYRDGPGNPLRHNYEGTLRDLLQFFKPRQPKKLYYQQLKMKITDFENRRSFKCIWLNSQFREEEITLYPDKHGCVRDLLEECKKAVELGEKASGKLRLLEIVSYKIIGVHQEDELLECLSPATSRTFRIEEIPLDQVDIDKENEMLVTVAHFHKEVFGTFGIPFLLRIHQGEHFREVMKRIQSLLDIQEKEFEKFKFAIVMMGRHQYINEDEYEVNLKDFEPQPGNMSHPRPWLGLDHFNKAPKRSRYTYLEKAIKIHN

IC50 [µM] | SMILES
< 10 | N#CN1Cc2[nH]nc(-c3cccc(N4CCCC4=O)c3)c2C1
< 10 | N#CN1Cc2[nH]nc(-c3cccc(N4CCOC4=O)c3)c2C1
